The target in this assay is T1, Recombinant human mPGES-1 (Homo sapiens, UniProt O14684).
T1 sequence (O14684 1-152): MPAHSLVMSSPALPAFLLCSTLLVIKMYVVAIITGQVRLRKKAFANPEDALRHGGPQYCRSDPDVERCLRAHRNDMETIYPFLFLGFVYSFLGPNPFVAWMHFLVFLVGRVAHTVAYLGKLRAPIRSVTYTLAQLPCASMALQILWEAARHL
Description: In-vitro mPGES-1 enzyme inhibition assay (PGE2 formation from PGH2, HTRF detection). Type of assay: biochemical. As to conditions: for inhibition at 1 µM: 1 μM test compound, read-out: Percentage inhibition at 1 μM; for inhibition at 1 µM / inhibition at 10 µM: recombinant human mPGES-1 microsomal fraction; for inhibition at 10 µM: 10 μM test compound, read-out: Percentage inhibition at 10 μM; for IC50: class symbols, selected examples. An excerpt:
In-Vitro Protocol for Screening of mPGES-1 Inhibitors: mPGES-1 (microsomal prostaglandin E synthase-1) is a microsomal enzyme that converts endoperoxide substrate PGH2 (prostaglandin H2) to product PGE2 (prostaglandin E2) by isomerization in the presence of reduced glutathione (GSH). mPGES-1 inhibitors were screened by assessing their ability to inhibit formation of PGE2 from PGH2 in presence of mPGES-1 using anti-PGE2 antibody based detection method. […] Assay was set up using crude microsomal fractions at protein concentration of 40-60 μg/mL. […] Final concentration of DMSO in reaction was 0.5% (v/v). Negative controls comprised of all assay reagents except the enzyme. Positive controls comprised of enzyme reaction in the absence of any inhibitor. […] Reaction was stopped by addition of Stannous chloride (11 mg/ml) and PGE2 levels were measured ([…] et al. […] Inhibition of mPGES-1 enzyme activity was measured using percent of reaction occurring in the positive control. Concentration response curves were plotted using percent inhibition of maximum enzyme reaction. IC50 value was calculated from concentration response curve by nonlinear regression analysis using GraphPad PRISM software.
(In general: Time-resolved FRET reads energy transfer from a long-lived donor to a nearby acceptor.)

As a reminder, the inhibition is the change of the read-out against control, counted positive when it falls. As for `Cc1cc2c(o1)c(C(=O)NCCC(C)C)cc1nc(Nc3c(Cl)cncc3Cl)[nH]c12` [Example-50, 2-[(3,5-Dichloropyridin-4-yl)amino]-7-methyl-N-(3-methylbutyl)-1H-furo[3,2-e]benzimidazole-5-carboxamide], the inhibition at 1 µM came out at 89.2% and the inhibition at 10 µM worked out at 99.3%.
In general, IC50 refers to the concentration that inhibits the measured activity by half. With `CC1(C)Cc2c(c(C(=O)Nc3ccccc3F)cc3nc(Nc4c(F)cccc4Cl)[nH]c23)O1` [Example-51, 2-[(2-Chloro-6-fluorophenyl)amino]-N-(2-fluorophenyl)-7,7-dimethyl-7,8-dihydro-1H-furo[3,2-e]benzimidazole-5-carboxamide], the inhibition at 1 µM turned out to be 96.9%, the inhibition at 10 µM was 99.4% and the IC50 is below 50 nM.
As to `CC(C)(C)CC(C)(C)NC(=O)c1cc2nc(Nc3c(F)cccc3Cl)[nH]c2c2c1OC(C)(C)C2` [Example-52, 2-[(2-Chloro-6-fluorophenyl)amino]-7,7-dimethyl-N-(2,4,4-trimethylpentan-2-yl)-7,8-dihydro-1H-furo[3,2-e]benzimidazole-5-carboxamide], the inhibition at 1 µM came to 94.3%, the inhibition at 10 µM stood at 96% and the IC50 was below 50 nM.
For `CC1(C)Cc2c(c(C(=O)Nc3nc(C(C)(C)C)cs3)cc3nc(Nc4c(F)cccc4Cl)[nH]c23)O1` [Example-53, N-(4-tert-Butyl-1,3-thiazol-2-yl)-2-[(2-chloro-6-fluorophenyl)amino]-7,7-dimethyl-7,8-dihydro-1H-furo[3,2-e]benzimidazole-5-carboxamide], the inhibition at 1 µM was found to be 47.2% and the inhibition at 10 µM amounted to 85.4%.
On the same counts, the results for `Cc1csc(NC(=O)c2cc3nc(Nc4c(F)cccc4Cl)[nH]c3c3c2OC(C)(C)C3)n1` [Example-54, 2-[(2-Chloro-6-fluorophenyl)amino]-7,7-dimethyl-N-(4-methyl-1,3-thiazol-2-yl)-7,8-dihydro-1H-furo[3,2-e]benzimidazole-5-carboxamide] are 79.2% and 92.8%.
For the compound `Cc1nc(NC(=O)c2cc3nc(Nc4c(F)cccc4Cl)[nH]c3c3c2OC(C)(C)C3)sc1C` [Example-55, 2-[(2-Chloro-6-fluorophenyl)amino]-N-(4,5-dimethyl-1,3-thiazol-2-yl)-7,7-dimethyl-7,8-dihydro-1H-furo[3,2-e]benzimidazole-5-carboxamide], the inhibition at 1 µM was 91.8%, the inhibition at 10 µM is 94.2% and the IC50 is above 100 nM.
On to `CC1(C)Cc2c(c(C(=O)Nc3cccc(F)c3)cc3nc(Nc4c(F)cccc4Cl)[nH]c23)O1` [Example-56, 2-[(2-Chloro-6-fluorophenyl)amino]-N-(3-fluorophenyl)-7,7-dimethyl-7,8-dihydro-1H-furo[3,2-e]benzimidazole-5-carboxamide], for which the inhibition at 1 µM was determined as 96%, the inhibition at 10 µM amounted to 98.2% and the IC50 was below 50 nM.
Turning to `Cc1cc2c(o1)c(C(=O)NCC1CC1)cc1nc(Nc3c(Cl)cccc3Cl)[nH]c12` [Example-57, N-(Cyclopropylmethyl)-2-[(2,6-dichlorophenyl)amino]-7-methyl-1H-furo[3,2-e]benzimidazole-5-carboxamide], the inhibition at 1 µM was determined as 61.7% and the inhibition at 10 µM was determined as 88.2%.
On the same counts, the results for `CC1(C)Cc2c(c(C(=O)NN3CCCC3)cc3nc(Nc4c(Cl)cccc4Cl)[nH]c23)O1` [Example-58, 2-[(2,6-Dichlorophenyl)amino]-7,7-dimethyl-N-(pyrrolidin-1-yl)-7,8-dihydro-1H-furo[3,2-e]benzimidazole-5-carboxamide] are 63.3% and 95.4%.
`CC1(C)Cc2c(c(C(=O)Nc3ccc(C#N)cc3)cc3nc(Nc4c(Cl)cccc4Cl)[nH]c23)O1` [Example-59, N-(4-Cyanophenyl)-2-[(2,6-dichlorophenyl)amino]-7,7-dimethyl-7,8-dihydro-1H-furo[3,2-e]benzimidazole-5-carboxamide]: the inhibition at 1 µM came to 96.8%, the inhibition at 10 µM was 98.1% and the IC50 was below 50 nM.
With `CN(C)CCNC(=O)c1cc2nc(Nc3c(Cl)cccc3Cl)[nH]c2c2c1OC(C)(C)C2` [Example-61, 2-[(2,6-Dichlorophenyl)amino]-N-[2-(dimethylamino)ethyl]-7,7-dimethyl-7,8-dihydro-1H-furo[3,2-e]benzimidazole-5-carboxamide], the inhibition at 1 µM is 6.5% and the inhibition at 10 µM was 69.8%.
Consider `CC1(C)Cc2c(c(C(=O)NCC(F)(F)F)cc3nc(Nc4c(Cl)cccc4Cl)[nH]c23)O1` [Example-62, 2-[(2,6-Dichlorophenyl)amino]-7,7-dimethyl-N-(2,2,2-trifluoroethyl)-7,8-dihydro-1H-furo[3,2-e]benzimidazole-5-carboxamide], for which the inhibition at 1 µM is 96.8% and the inhibition at 10 µM was 94.3%.
For `CC1(C)Cc2c(c(C(=O)NCCF)cc3nc(Nc4c(Cl)cccc4Cl)[nH]c23)O1` [Example-63, 2-[(2,6-Dichlorophenyl)amino]-N-(2-fluoroethyl)-7,7-dimethyl-7,8-dihydro-1H-furo[3,2-e]benzimidazole-5-carboxamide], the inhibition at 1 µM came out at 88%, the inhibition at 10 µM is 96.6% and the IC50 lay in the range of 50 to 100 nM.
In the same order, the values of `Cc1cc2c(o1)c(C(=O)Nc1ccc(Br)cc1)cc1nc(Nc3c(Cl)cccc3Cl)[nH]c12` [Example-66, N-(4-Bromophenyl)-2-[(2,6-dichlorophenyl)amino]-7-methyl-1H-furo[3,2-e]benzimidazole-5-carboxamide] are 96.4%, 95.2% and below 50 nM.
In the case of `Cc1cc2c(o1)c(C(=O)Nc1ccccc1F)cc1nc(Nc3c(Cl)cccc3Cl)[nH]c12` [Example-67, 2-[(2,6-Dichlorophenyl)amino]-N-(2-fluorophenyl)-7-methyl-1H-furo[3,2-e]benzimidazole-5-carboxamide], the inhibition at 1 µM was determined as 92.8% and the inhibition at 10 µM was determined as 96.2%.
On the same counts, the results for `Cc1cc2c(o1)c(C(=O)Nc1cccc(C(F)(F)F)c1)cc1nc(Nc3c(Cl)cccc3Cl)[nH]c12` [Example-68, 2-[(2,6-Dichlorophenyl)amino]-7-methyl-N-[3-(trifluoromethyl)phenyl]-1H-furo[3,2-e]benzimidazole-5-carboxamide] are 97.6% and 98.5%.
For the compound `COCCCNC(=O)c1cc2nc(Nc3c(Cl)cccc3Cl)[nH]c2c2c1OC(C)(C)C2` [Example-69, 2-[(2,6-Dichlorophenyl)amino]-N-(3-methoxypropyl)-7,7-dimethyl-7,8-dihydro-1H-furo[3,2-e]benzimidazole-5-carboxamide], the inhibition at 1 µM amounted to 86.2%, the inhibition at 10 µM stood at 98% and the half-inhibitory concentration (IC50) was below 50 nM.
As for `CC1(C)Cc2c(c(C(=O)NCCN3CCOCC3)cc3nc(Nc4c(Cl)cccc4Cl)[nH]c23)O1` [Example-70, 2-[(2,6-Dichlorophenyl)amino]-7,7-dimethyl-N-[2-(morpholin-4-yl)ethyl]-7,8-dihydro-1H-furo[3,2-e]benzimidazole-5-carboxamide], the inhibition at 1 µM stood at 69.1% and the inhibition at 10 µM was 88.2%.
As to `Cc1cc2c(o1)c(C(=O)Nc1ccc(Br)cn1)cc1nc(Nc3c(Cl)cccc3Cl)[nH]c12` [Example-71, N-(5-Bromopyridin-2-yl)-2-[(2,6-dichlorophenyl)amino]-7-methyl-1H-furo[3,2-e]benzimidazole-5-carboxamide], the inhibition at 1 µM turned out to be 93.9%, the inhibition at 10 µM was 98.4% and the 50% inhibitory concentration (IC50) was below 50 nM.
For the compound `CC1(C)Cc2c(c(C(=O)Nc3ccccc3Br)cc3nc(Nc4c(Cl)cccc4Cl)[nH]c23)O1` [Example-72, N-(2-Bromophenyl)-2-[(2,6-dichlorophenyl)amino]-7,7-dimethyl-7,8-dihydro-1H-furo[3,2-e]benzimidazole-5-carboxamide], the inhibition at 1 µM was found to be 93.2%, the inhibition at 10 µM amounted to 93.7% and the IC50 is below 50 nM.
In the same order, the values of `CC1(C)Cc2c(c(C(=O)NNc3ccc(Br)cc3)cc3nc(Nc4c(Cl)cccc4Cl)[nH]c23)O1` [Example-74] are 93.4%, 94.7% and 50 to 100 nM.
On the same counts, the results for `CC1(C)Cc2c(c(C(=O)Nc3ccccc3C(F)(F)F)cc3nc(Nc4c(Cl)cccc4Cl)[nH]c23)O1` [Example-75, 2-[(2,6-Dichlorophenyl)amino]-7,7-dimethyl-N-[2-(trifluoromethyl)phenyl]-7,8-dihydro-1H-furo[3,2-e]benzimidazole-5-carboxamide] are 94.8%, 95% and below 50 nM.
In the same order, the values of `CC1(C)Cc2c(c(C(=O)Nc3c(F)cccc3F)cc3nc(Nc4c(Cl)cccc4Cl)[nH]c23)O1` [Example-76, 2-[(2,6-Dichlorophenyl)amino]-N-(2,6-difluorophenyl)-7,7-dimethyl-7,8-dihydro-1H-furo[3,2-e]benzimidazole-5-carboxamide] are 95.8%, 99.6% and below 50 nM.

(Values after patent US8519149B2, “Tricyclic compounds as mPGES-1 inhibitors” (Glenmark Pharmaceuticals S.A., priority 2010, dated 2013).)
